One series is described as follows: in vitro. The class given is in vitro ADME. Conditions: human, pH 7.4, 37°C, 10 µM compound; for Papp A→B: apical-to-basal; for Papp B→A: basal-to-apical. As to the method: Permeability measurements across polarized, confluent CALU-3 cell monolayers grown on permeable filter supports are used to provide information on the potential of a compound to pass the lung epithelium. Apparent permeability coefficients (Papp) of the compounds across the CALU-3 cell monolayers are measured (pH 7.4, 37°C) in apical-to-basal (AB) and basal-to-apical (BA) transport direction.
CALU-3 cells (1-2 x 10^5 cells/1 cm^2 area) are seeded on filter inserts (Costar transwell polycarbonate filters, 0.4 µm pore size) and cultured (for 10 - 12 days DMEM) until tight monolayers are formed. Compounds of interest are dissolved in appropriate solvent (DMSO, 10 mM stock solution). Stock solutions are diluted with HTP-4 buffer (128.13 mM NaCl, 5.36 mM KCl, 1 mM MgSO4, 1.8 mM CaCl2, 4.17 mM NaHCO3, 1.19 mM Na2HPO4 x 7H2O, 0.41 mM NaH2PO4xH2O, 15 mM HEPES, 20 mM glucose, 0.25 % BSA, pH 7.4) to prepare the transport solutions (10 µM compound, final DMSO <= 0.5 %). The transport solution (TL) is applied to the apical or basolateral donor side for measuring A-B or B-A permeability (3 filter replicates), respectively. The receiver side contains the same buffer as the donor side. After 30 min of accommodation, samples are collected at the start t0 = 0 min and at the end of the experiment tn = 90 min from the donor and at 0, 30, 60, and 90 min also from the receiver chamber. Volume removed is replenished by HTP-4 buffer. The compound concentration in the samples is measured by HPLC-MS/MS or scintillation counting. The permeability coefficient (Papp) and efflux ratio are calculated according to: Papp [cm/s] = (concentration receiver [nM] * volume receiver [mL]/time interval [sec])*(1/filter area)*(1/donor concentration [nM]).

The next series concerns the target T1, ENaC (Mus musculus, UniProt Q61180+Q9WU38+Q9WU39).
T1 construct: Mouse kidney M-1 cells were cultivated in DMEM containing 5% FCS and 5µM dexamethasone; endogenous in cells; host or cells: Mouse kidney M-1 cells (cortical collecting duct line), dexamethasone-treated, on transwell filters
T1 sequence (Q61180 1-699): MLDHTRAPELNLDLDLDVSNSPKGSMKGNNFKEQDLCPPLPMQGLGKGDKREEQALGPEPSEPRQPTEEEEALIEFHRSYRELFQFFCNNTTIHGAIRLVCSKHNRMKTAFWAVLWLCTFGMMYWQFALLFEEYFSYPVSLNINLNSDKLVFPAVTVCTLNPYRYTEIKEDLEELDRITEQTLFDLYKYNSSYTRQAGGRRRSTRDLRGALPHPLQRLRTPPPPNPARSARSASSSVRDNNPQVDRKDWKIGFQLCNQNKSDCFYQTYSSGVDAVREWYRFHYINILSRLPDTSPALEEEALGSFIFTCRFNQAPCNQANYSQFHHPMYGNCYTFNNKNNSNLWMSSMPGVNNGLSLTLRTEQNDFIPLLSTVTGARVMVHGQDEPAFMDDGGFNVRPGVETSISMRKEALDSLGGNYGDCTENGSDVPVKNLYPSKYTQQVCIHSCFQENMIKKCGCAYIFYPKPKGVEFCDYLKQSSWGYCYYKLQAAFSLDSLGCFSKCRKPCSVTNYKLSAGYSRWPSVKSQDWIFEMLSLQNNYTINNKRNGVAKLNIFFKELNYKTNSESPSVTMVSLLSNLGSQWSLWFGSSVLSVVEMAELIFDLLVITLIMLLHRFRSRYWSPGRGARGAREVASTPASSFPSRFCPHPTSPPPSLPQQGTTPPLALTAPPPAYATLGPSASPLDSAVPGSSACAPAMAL
T1 sequence (Q9WU38 1-638): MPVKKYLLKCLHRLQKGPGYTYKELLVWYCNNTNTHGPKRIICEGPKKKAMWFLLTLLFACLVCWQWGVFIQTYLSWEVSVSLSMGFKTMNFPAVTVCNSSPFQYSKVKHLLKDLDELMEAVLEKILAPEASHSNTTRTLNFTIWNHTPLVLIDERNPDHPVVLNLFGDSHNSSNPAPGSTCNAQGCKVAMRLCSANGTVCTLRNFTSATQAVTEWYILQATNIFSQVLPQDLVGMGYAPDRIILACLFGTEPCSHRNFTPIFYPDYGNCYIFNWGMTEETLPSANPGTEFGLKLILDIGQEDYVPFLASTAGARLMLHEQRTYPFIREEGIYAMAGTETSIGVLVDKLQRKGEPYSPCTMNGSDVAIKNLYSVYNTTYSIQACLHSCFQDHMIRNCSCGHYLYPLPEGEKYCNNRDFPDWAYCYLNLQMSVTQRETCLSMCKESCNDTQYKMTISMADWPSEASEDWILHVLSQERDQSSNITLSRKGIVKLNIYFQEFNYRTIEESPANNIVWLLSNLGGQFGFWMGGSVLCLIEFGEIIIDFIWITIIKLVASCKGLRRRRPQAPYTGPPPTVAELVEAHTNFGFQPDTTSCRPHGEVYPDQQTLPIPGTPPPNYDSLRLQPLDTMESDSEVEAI
T1 sequence (Q9WU39 1-655): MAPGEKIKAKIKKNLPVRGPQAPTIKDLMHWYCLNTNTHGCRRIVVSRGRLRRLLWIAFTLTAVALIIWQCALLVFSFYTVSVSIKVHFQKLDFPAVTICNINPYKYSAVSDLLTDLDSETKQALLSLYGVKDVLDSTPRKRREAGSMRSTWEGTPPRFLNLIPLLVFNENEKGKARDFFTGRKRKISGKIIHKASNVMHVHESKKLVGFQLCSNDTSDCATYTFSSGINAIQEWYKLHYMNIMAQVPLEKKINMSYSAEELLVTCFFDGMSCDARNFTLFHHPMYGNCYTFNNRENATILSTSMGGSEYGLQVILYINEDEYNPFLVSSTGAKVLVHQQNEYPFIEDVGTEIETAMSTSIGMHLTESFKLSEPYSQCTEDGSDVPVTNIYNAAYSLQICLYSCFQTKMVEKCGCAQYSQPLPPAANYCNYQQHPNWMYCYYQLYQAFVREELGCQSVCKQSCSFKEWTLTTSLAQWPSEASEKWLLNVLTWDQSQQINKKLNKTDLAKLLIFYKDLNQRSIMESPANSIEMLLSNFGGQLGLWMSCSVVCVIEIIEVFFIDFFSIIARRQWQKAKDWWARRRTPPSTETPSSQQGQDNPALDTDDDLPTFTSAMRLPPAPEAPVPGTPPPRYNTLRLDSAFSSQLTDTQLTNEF
The experiment in a line: Ussing Chamber assay (short circuit current, amiloride sensitive I_SC). The series is classed as cell-based. Conditions: Mouse kidney M-1 cells, apical administration, 37°C. As to the method: The IC50 values of the example compounds given above were determined in the Ussing Chamber assay.
Ussing Chamber: Mouse kidney M-1 cells were cultivated in DMEM containing 5% FCS and 5µM dexamethasone for 10 to 12 days on polyester transwell filters. Filters were inserted into a teflon-coated well-plate which fit into the ussing chamber system. Prior to measurement the medium of M-1 cells was replaced with Caco-2 transport buffer (Invitrogen, Germany). During measurements, the Ussing chamber temperature was kept at 37°C. Short circuit currents (I_sc) were measured in the voltage-clamp mode with the software package Lab View for data acquisition and analysis. The transepithelial electrical resistance (TEER) was determined by the application of voltage steps of ±5mV every 5 sec. Compounds were administered at a final concentration of 3µM or at increasing concentrations (1-3-10µM) to the apical solution. At the end of each experiment the amiloride sensitive I_SC was measured by adding 3µM amiloride to the apical compartment. Results are expressed as inhibition in percent of the amiloride effect or as IC50.

In the case of `CC[n+]1c(CNC(=O)c2nc(Cl)cnc2N)n(CC2CCCO2)c2cc(OCC(=O)N3CC[S+]([O-])CC3)ccc21` (stereo not drawn) [Example 1.01], in the series “in vitro”, the Papp A→B amounted to 0.8 ×10⁻⁶ cm/s and the Papp B→A was 0.3 ×10⁻⁶ cm/s.

As to `CCn1c(CNC(=O)c2nc(Cl)cnc2N)[n+](CC)c2ccc(OCC(=O)NCCCN)cc21` [Example 2.01], the half-maximal inhibitory concentration (IC50) against ENaC came out at 1 nM. In the series “in vitro”, this compound showed a Papp A→B of 0.2 ×10⁻⁶ cm/s and a Papp B→A of 0.5 ×10⁻⁶ cm/s.

For the compound `CCOCCN1CCC(NC(=O)COc2ccc3c(c2)n(CC)c(CNC(=O)c2nc(Cl)cnc2N)[n+]3CC)CC1` [Example 2.07], it took 3 nM to reach half-maximal inhibition against ENaC (IC50).
